The text below walks through data of US20090117083A1, “IMMUNOMODULATORY ALKALOIDS” (M N L PHARMA LIMITED, priority 2004, published 2009).

The structures appear in SMILES notation.

For one assay, the system named is dendritic cells. As to the kind of experiment: Induction of IL-12 secretion in dendritic cells (ELISA). To be noted: casuarine alone, absence of LPS; 1 μg/ml versus 40 μg/ml. It counts as cell-based, BALB/c mice.
Another assay concerns the target T1, α-D-glucosidase (Oryza sativa subsp. japonica, UniProt Q653V7).
T1 construct: purchased Sigma
As to the kind of experiment: Glycosidase inhibition: α-D-glucosidase, rice. The format is biochemical, rice (Oryza sativa). To be noted: 1 mg/ml; read-out: % inhibition, gluc (rice). The procedure, abridged:
(§1)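 p-Nitrophenyl glycoside hydrolysis, 405 nm endpoint. Substrate 3.57 mM final; McIlvaine buffer at optimum pH per enzyme; 20° C; stop with 0.4M glycine pH 10.4 during exponential phase; water replaces inhibitor in blanks.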

For a further assay, the target named is T2, α-L-fucosidase (Bos taurus, UniProt Q2KIM0).
T2 construct: purchased Sigma
T2 sequence (Q2KIM0 23-468): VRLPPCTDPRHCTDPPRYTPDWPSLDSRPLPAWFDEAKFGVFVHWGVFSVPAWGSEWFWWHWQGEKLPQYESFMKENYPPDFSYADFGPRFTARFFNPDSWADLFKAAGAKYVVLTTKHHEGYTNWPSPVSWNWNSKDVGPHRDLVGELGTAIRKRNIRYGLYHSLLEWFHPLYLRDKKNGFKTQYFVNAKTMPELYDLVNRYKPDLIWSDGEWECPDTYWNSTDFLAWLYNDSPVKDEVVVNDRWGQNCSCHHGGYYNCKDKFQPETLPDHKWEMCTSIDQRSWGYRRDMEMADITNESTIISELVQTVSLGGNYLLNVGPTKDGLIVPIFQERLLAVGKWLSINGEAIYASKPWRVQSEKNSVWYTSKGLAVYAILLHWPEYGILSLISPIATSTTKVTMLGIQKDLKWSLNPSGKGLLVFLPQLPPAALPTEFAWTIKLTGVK
As to the kind of experiment: Glycosidase inhibition: α-L-fucosidase. The format is biochemical, Bovine. To be noted: 1 mg/ml; read-out: % inhibition, fucosidase. The method in brief: as §1

The next assay has as its system B16-F10 tumour cells. As to the kind of experiment: Control of lung metastasis in mice (B16-F10). It counts as in vivo, C57/bl6 mice. To be noted: 50 mg/kg s/c on days 2 and 4; lungs on day 14. The method, then: Mice (C57/bl6 under i/p ketamine anaesthesia) were challenged i/v (tail vein) with 5×10^4 B16-F10 tumour cells in a final volume of 100 μl per mouse on day 0. Test compounds (50 mg/kg in 200 μl sterile non-pyrogenic saline) were administered sic (right flank) on days 2 and 4. On day 14 the mice were sacrifices and the lungs dissected and stained in Indian ink solution (150 ml bidistilled water, 30 ml India Ink, 4 drops NH4OH) for 10 minutes then fixed for at least 24 hr in Fakete's solution (90 ml 37% formaldehyde, 900 ml 70% EtOH and 45 ml glacial acetic acid). The metastases in the stained and fixed lungs could then be visualized, counted and photographed.

A further assay concerns MCF-7 cells. As to the kind of experiment: Effect on glycosylation of breast cancer cells (N-glycan HPLC). It counts as cell-based. To be noted: 0.75 mM, 62 and 86 hour time points.

T1 sequence (Q653V7 34-885): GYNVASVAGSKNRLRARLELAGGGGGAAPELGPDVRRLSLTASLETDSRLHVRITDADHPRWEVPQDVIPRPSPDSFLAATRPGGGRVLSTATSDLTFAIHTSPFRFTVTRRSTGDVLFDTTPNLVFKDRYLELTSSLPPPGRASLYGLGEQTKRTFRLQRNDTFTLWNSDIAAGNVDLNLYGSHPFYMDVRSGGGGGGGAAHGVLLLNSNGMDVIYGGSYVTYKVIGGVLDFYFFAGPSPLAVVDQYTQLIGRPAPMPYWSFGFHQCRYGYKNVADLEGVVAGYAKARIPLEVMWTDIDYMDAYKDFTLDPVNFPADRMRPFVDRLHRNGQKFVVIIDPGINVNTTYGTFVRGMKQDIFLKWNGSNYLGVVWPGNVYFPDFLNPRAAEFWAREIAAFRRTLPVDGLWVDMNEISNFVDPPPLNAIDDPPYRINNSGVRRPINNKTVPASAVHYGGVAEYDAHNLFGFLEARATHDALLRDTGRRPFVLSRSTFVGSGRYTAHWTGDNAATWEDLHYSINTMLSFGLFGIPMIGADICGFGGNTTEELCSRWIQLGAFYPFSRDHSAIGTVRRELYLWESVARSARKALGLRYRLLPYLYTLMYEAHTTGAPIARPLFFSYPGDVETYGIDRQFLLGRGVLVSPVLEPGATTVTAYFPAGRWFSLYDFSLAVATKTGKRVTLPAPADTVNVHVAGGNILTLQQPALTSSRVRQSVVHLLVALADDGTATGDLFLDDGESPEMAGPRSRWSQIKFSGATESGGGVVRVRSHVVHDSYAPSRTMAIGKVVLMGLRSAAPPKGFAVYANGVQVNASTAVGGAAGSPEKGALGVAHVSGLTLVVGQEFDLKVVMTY
Procedure for MCF-7 cells: MCF-7 cells (European Collection of Cell Cultures Ref. 86012803) were taken from liquid nitrogen stock, thawed at room temperature and transferred to 10 ml Dulbeccos Modified Eagle's Medium with Hams F12, 15 mM Hepes and L-glutamine (DMEM: Cambrex Cat. No. BE12-719F) supplemented with 10% v/v foetal calf serum (FCS: BioWest Labs Cat. No. S02755, Lot. No. S1800). The FCS was pre-filtered through a 0.2 μm sterile filter.
The cells were then centrifuged at 1,500 rpm in a Centaur bench-top centrifuge and the supernatant removed. The cells were reconstituted in fresh media and seeded into two T75 cm^3 Nunclon tissue culture flasks and allowed to settle overnight at 37° C. in a 5% CO2 incubator. The flasks were wrapped in cling film to prevent cross-contamination and the following day the media was changed to include the antibiotics penicillin and streptomycin as a precautionary measure against infection (at concentrations of 1 mg/cm^3 and 5 mg/cm^3, respectively). […]
The cells were harvested using a non-enzymatic method. At each of the time points the cells were viewed under the inverted light microscope and the morphology evaluated. […] The number of cells was then counted in a haemocytometer and cell viability evaluated by mixing 0.1 cm^3 of each cell suspension with a drop of trypan blue solution. […]
Evaluated using the BioRad protein assay according to the manufacturer's instructions. […]

Consider `OC[C@@H]1[C@@H](O)[C@H](O)[C@H]2[C@H](O)[C@@H](O)CN21` [casuarine (8)], for which the “induction of IL-12 secretion, dose response” value in the assay on dendritic cells is “higher at low doses than high”. Also, the inhibition at 1000 µg/mL is 76% at α-D-glucosidase and -1% on α-L-fucosidase. Besides, the Metastatic morphology entry with B16-F10 tumour cells is recorded as “Metastasis restricted to apical tip of lung”. The “glycan synthesis and/or N-linked glycosylation in breast cancer cells” value in the assay on MCF-7 cells is on record as “can inhibit glycan synthesis and/or N-linked glycosylation”.

For orientation: inhibition means the relative decrease from the control value, in per cent.
